Experimental data: ChEMBL document CHEMBL1158757, “Ophiocerins A-D and ophioceric acid: tetrahydropyran derivatives and an africane sesquiterpenoid from the freshwater aquatic fungus Ophioceras venezuelense” (J Nat Prod, 2005)
The source made the active and inactive calls.

Tests used:
Format in all cases: functional, organism-based
Staphylococcus aureus = test: Antibacterial activity against Staphylococcus aureus at 200 ug/disk
Candida albicans = test: Antifungal activity against Candida albicans at 200 ug/disk
Escherichia coli = test: Antimicrobial activity against Escherichia coli at 200 ug/disk

Measured: Activity

C/C=C\C(=O)O[C@@H]1[C@H](O)[C@@H](O)CO[C@@H]1C
inactive: all assays above

C[C@@H]1C[C@@H](O)[C@@H](O)CO1
inactive: all assays above

C[C@@H]1C[C@H](O)[C@@H](O)CO1
inactive: all assays above

C[C@@H]1C[C@@H](O)[C@H](O)CO1
inactive: all assays above

CC1=C2CC(C)(C)C[C@H]3C[C@@]3(C(=O)O)[C@@H]2CC1=O
inactive: all assays above
